Measurements taken from patent US12605462B2, “Porous silicon nanoparticle-based drug delivery system inducing reactive oxygen species and self-activation thereof, and method for preparing same” (University-Industry Cooperation Group of Kyung Hee …, priority 2021, dated 2026).

Experiments:
[1] = Conversion of JS-11 to SN-38 by ROS (emission change); format: physicochemical; settings: 37° C.; reacted only with H2O2
Procedure: To confirm whether JS-11 is converted to SN-38 by ROS, the change in the emission spike of JS-11 using H2O2 at 37° C. was measured. Since JS-11 has no electron push-pull capability, there is no emission in aqueous media but decomposes upon exposure to H2O2 and fluoresces at 560 nm.

BxPC-3 cell lines = assay: In vitro cytotoxicity of nano-formulations; format: cell-based; settings: human
Procedure: Next, the cytotoxicity of pSiNP, JS-11, pSiNPs (JS-11), and ROSG-pSiNP (JS-11) was evaluated for BxPC-3 cell lines. The throughput of pSiNP (JS-11) and ROSG-pSiNP (JS-11) was corrected with the concentration of JS-11 (0 to 10 μM).
The cytotoxicity of two nano-formulations, pSiNP-NCS (without JS-11 and TEPITC-modifying) and pSiNP-NCS/CGKRK (SEQ ID NO: 1) (without JS-11 and CGKRK-modifying), was further analyzed to confirm the synergistic cytotoxic effect of JS-11 and TEPITC.

BxPC-3 pancreatic tumors = assay: Therapeutic efficacy in pancreatic cancer xenograft model mice; format: in vivo; settings: 20 mg/kg via tail vein on days 34, 37, 40, 43; FIG. 25
Procedure: BALB/c nude mice (females and males, 4 weeks and 5 weeks old) were commercially obtained from Nara Co., Ltd., Gyeonggi-do, Korea. BxPC-3 cells (5×10^6 cells, suspended in 100 μl mixture of RPMI medium and Matrigel, 1:1) were injected subcutaneously behind the flank of each mouse. All animal experiments were performed according to the guidelines of the Korea Kyunghee University Animal Care Committee (IACUC).
Tumor-bearing mice were randomly divided into 5 groups (n=5 per group). (1) PBS only, (2) pSiNP only, (3) JS-11, (4) pSiNP (JS-11), and (5) ROSG-pSiNP (JS-11) were administered by intravenous injection (i.v.) 4 times at intervals of 3 days at a dose of 20 mg/kg, 100 μl each.
The mouse tumor size was recorded every 3 days until the end of the experiment, and the tumor volume was calculated by the formula V=[(tumor length)×(tumor width)^2]/[…]. At the end of the experiment (day 22), the body of each mouse was photographed with a digital camera, and body weight was measured.
Finally, the cancer treatment efficacy of ROSG-pSiNP (JS-11) was evaluated in pancreatic cancer xenograft model mice. To induce pancreatic tumors, BxPC-3 cells were injected subcutaneously behind the flank of mice on day 0. […] Changes in tumor volume and body weight in mice were monitored, and toxic effects were investigated for practical applications.

BxPC-3 cells [2] = assay: PEITC/TEPITC-induced intracellular ROS generation (DCFDA/DCF kit, CLSM); format: cell-based, Human; settings: 20 μM, 2 hours; for fluorescence intensity-based enhancement factor (DCF, ROS level) compared with before chemical treatment: FIG. 4 (BxPC-3)
Procedure: The intracellular ROS levels of cells were analyzed using the 2',7'-dichlorofluorosine diacetate (DCFDA/H2DCFDA) cell ROS detection analysis kit. BxPC-3, AsPC-1, and PANC-1 cells (1×10^5 cells/mL, 100 μl/well) were inoculated into 96-well black plates and incubated at 37° C. for 24 hours. The cells were then treated with PEITC or […] at 1.25, 2.5, 5, 10, and 20 μM, respectively, and then incubated at 37° C. for 2 hours. As a positive control group, a set treated with hydrogen peroxide (H2O2) was prepared. The cells were then treated with 20 μM DCFDA (100 μl) at 37° C. for 45 minutes. Excitation/emission wavelengths at 485/535 nm were measured with a microplate reader (Fluorostar Omega, BMG Labtech, Germany). Intracellular ROS generation was assessed by CLSM (LSM800, Carl Zeiss, Oberkochen, Germany) imaging using BxPC-3 cells. BxPC-3 cells (1×10^5 cells/mL, 2 mL) were inoculated into confocal plates. After 24 hours incubation, cells were treated with 20 μM PEITC and […] for 2 hours. The cells were then stained with 20 μM DCFDA (200 μL) at 37° C. for 45 minutes, washed 3 times with PBS, and stained with DAPI for 10 minutes. After washing 3 times, the cells were fixed with 4% paraformaldehyde for 20 minutes. The excitation and emission channels are: DAPI (405 nm, 400-520 nm band filter), ROS (488 nm, 400-585 nm band filter). Cells were contacted with ITC, and intracellular ROS generation was assessed. Human pancreatic cell lines BxPC-3, AsPC-1, and PANC-1 were treated with […], and ROS levels were measured using the DCFDA/DCF kit. When 2',7'-dichlorofluorescein diacetate (DCFDA) diffuses into cells, it is deacetylated to H2DCF by cellular esterase, and when H2DCF comes into contact with ROS, it is converted to green fluorescent DCF. Phenethyl isothiocyanate (PEITC) and H2O2 were used as positive control groups. Each chemical substance ([…], and H2O2, concentration=0 to 20 μM) were treated on the cell line and incubated for 2 hours.

[3] = system: nuclear factor erythroid 2-related factor 2 (Nrf2); assay: Nrf2 expression in BxPC-3 cells by Western blot (TEPITC/PEITC); format: cell-based, Human; settings: for time of greatest increase in Nrf2 expression after incubation / expression of Nrf2: 20 μM; for expression of Nrf2: 0 to 4 hours
Procedure: Oxidative stress-related signaling pathways were analyzed to confirm the association between […] treatment and intracellular ROS upregulation. PEITC was used as a positive control group. PEITC is known to induce Nrf2 accumulation in human prostate cancer PC-3 cells and increase the expression of endogenous heme oxygenase-1 (HO-1) protein. According to FIG. 7A, BxPC-3 cells were treated with […] It is noteworthy that the expression of Nrf2 in the […] treatment group was maximum 30 minutes after incubation began but decreased from 1 hour later.

heme oxygenase-1 (HO-1) = assay: HO-1 expression in BxPC-3 cells by Western blot; format: cell-based, Human; settings: 5 μM, 0 to 6 hours
Procedure: The expression level of HO-1, an antioxidant enzyme essential for cell protection against oxidative stress, was also analyzed. Cells were treated with […] (5 μM) and incubated for 0 to 6 hours. […] This is thought to be because Nrf2 is a transcription factor that regulates the expression of HO-1.

BxPC-3 cells [4] = assay: Cytotoxicity of isothiocyanates (CCK-8 assay); format: cell-based, Human; settings: 10 μM, 24 hours
Procedure: Next, the cytotoxicity of TEPITC was analyzed. BxPC-3 cells were treated with 0 to 10 μM of TEPITC or PEITC and incubated for 24 hours, and cytotoxicity and viability were analyzed by CCK-8 assay.

Nrf2 = Nrf2 immunofluorescence / nuclear translocation (CLSM); format: cell-based, Human; settings: 30 minutes, BxPC-3
Procedure: CLSM imaging was used to verify that […] induces nuclear translocation of cytoplasmic Nrf2. BxPC-3 cells were treated with […] (0 to 10 μM), incubated for 30 minutes, and visualized by treatment with Nrf2 antibody and DAPI.

**Q.** With `CCc1c2c(nc3ccc(OC(=O)c4ccccc4Nc4cccc(C)c4C)cc13)-c1cc3c(c(=O)n1C2)COC(=O)[C@]3(O)CC` [JS-11] as the molecule, how does the “conversion to SN-38 under pH 3 to 10, metal ions and biomolecules” value [1] read?
**A.** did not show the conversion to SN-38

**Q.** What about the cytotoxicity (BxPC-3 cell lines; 0.625 μM) of the same molecule?
**A.** 21.60%

**Q.** What about the cytotoxicity (BxPC-3 cell lines; 10 μM) of the same molecule?
**A.** 42.4%

**Q.** What about the mean tumor volume (BxPC-3 pancreatic tumors) of the same molecule?
**A.** 183.1±40.8 mm^3

**Q.** Which results are given for `S=C=NCCc1ccccc1` [PEITC, Phenethyl isothiocyanate, reference compound]?
**A.** fluorescence intensity-based enhancement factor (DCF, ROS level) compared with before chemical treatment (BxPC-3 cells [2]): 3.67 times; time of greatest increase in Nrf2 expression after incubation [3]: 30 min; expression of Nrf2 [3]: significantly increased

**Q.** For `CCO[Si](CCCN=C=S)(OCC)OCC` [TEPITC, 3-isothiocyanatopropyltriethoxysilane], which “expression level of intracellular HO-1” value (heme oxygenase-1 (HO-1)) is on record?
**A.** significantly increased

**Q.** And the “time of highest HO-1 expression” value (heme oxygenase-1 (HO-1))?
**A.** 2 h and 4 h

**Q.** And the “cytotoxicity compared to the untreated group cells” value (BxPC-3 cells [4])?
**A.** up to 80%

**Q.** What about the Nrf2 immunofluorescence localisation (Nrf2; 2.5 μM) of the same molecule?
**A.** increase in Nrf2 expression in the cytoplasm

**Q.** And the Nrf2 immunofluorescence localisation (Nrf2; 5 μM)?
**A.** in the nucleus Nrf2 expression was observed

**Q.** What about the Nrf2 immunofluorescence localisation (Nrf2; 10 μM) of the same molecule?
**A.** Nrf2 signal in the nucleus was weakened

**Q.** What about the “intracellular ROS level (fluorescence analysis and CLSM images)” value (BxPC-3 cells [2]; BxPC-3) of the same molecule?
**A.** upregulates the intracellular ROS level, and the effect was superior to PEITC

**Q.** And the “fluorescence intensity-based enhancement factor (DCF, ROS level) compared with before chemical treatment” value (BxPC-3 cells [2])?
**A.** 6.34 times

**Q.** What about the “increase in Nrf2 level, concentration dependence” value ([3]; 0 to 20 μM) of the same molecule?
**A.** concentration-dependent in the range of 2.5 to 10 μM

**Q.** What about the “time of greatest increase in Nrf2 expression after incubation” value [3] of the same molecule?
**A.** 30 min

**Q.** And the “expression of Nrf2” value [3]?
**A.** significantly increased
